Values belong to the molecule of their own block, whether it stands above or below them.
Key:
Brassica napus [1] = test: Drought stress greenhouse test Part A, visual scoring vs stressed control plants; assay type: in vivo; design: key: 0: no effect; 10: slight positive effect; 20: clear positive effect; 30: strong positive effect; conditions: spray application 250 g/ha, average score of 3 pots
Method: (§1) Seeds of monocotyledonous and dicotyledonous crop plants were sown in sandy loam in plastic pots, covered with soil or sand and cultivated in a greenhouse under good growth conditions. The trial plants were treated at the early leaf stage (BBCH10-BBCH13). To assure uniform water supply before commencement of stress, the potted plants were supplied with water by dam irrigation prior to substance application.
(§2) The inventive compounds formulated in the form of wettable powders (WP) were sprayed onto the green parts of the plants as an aqueous suspension at an equivalent water application rate of 600 l/ha with addition of 0.2% wetting agent (e.g. agrotin). Substance application was followed immediately by stress treatment of the plants.
(§3) Drought stress was induced by gradual drying out under the following conditions:
(§4) “Day”: 14 hours with illumination at ˜26-30° C. “Night”: 10 hours without illumination at ˜18-20° C.
(§5) The duration of the respective stress phases was guided mainly by the condition of the stressed control plants. It was ended (by re-irrigating and transfer to a greenhouse with good growth conditions) as soon as irreversible damage was observed on the stressed control plants.
(§6) The end of the stress phase was followed by an about 4-7-day recovery phase, during which the plants were once again kept under good growth conditions in a greenhouse. The duration of the recovery phase was guided mainly by when the trial plants had attained a state which enabled visual scoring of potential effects, and was therefore variable.
(§7) Once this juncture had been reached, the appearance of the plants treated with test substances was recorded in comparison to the stressed control plants by the following categories:
(§8) In order to rule out any influence on the effects observed by any fungicidal or insecticidal action of the test compounds, it was additionally ensured that the tests proceeded without fungal infection or insect infestation.
(§9) In each test, for each crop and dosage, plants in 3 pots were treated and evaluated separately. The values reported in Tables A-1 to A-2 below for the effects obtained are averages from the scores obtained.
(§10) BRSNS=Brassica napus TRZAS=Triticum aestivum

Triticum aestivum [2] = test: as above; assay type: in vivo; design: key: 0: no effect; 10: slight positive effect; 20: clear positive effect; 30: strong positive effect; conditions: average score of 3 pots
Method: as §1, §2, §3, §4, §5, §6, §7, §8, §9, §10

[3] = target: T1, phosphatase ABI1 via the co-regulator RCAR11/PYR1 (Arabidopsis thaliana, UniProt O49686+P49597); test: In vitro inhibition of the phosphatase ABI1 via the co-regulator RCAR11/PYR1, MUP dephosphorylation; assay type: biochemical; design: dose or concentration left out as unconfirmed; conditions: in a solution of DMSO and water; fluorescence at 460 nm
T1 sequence (O49686 1-191): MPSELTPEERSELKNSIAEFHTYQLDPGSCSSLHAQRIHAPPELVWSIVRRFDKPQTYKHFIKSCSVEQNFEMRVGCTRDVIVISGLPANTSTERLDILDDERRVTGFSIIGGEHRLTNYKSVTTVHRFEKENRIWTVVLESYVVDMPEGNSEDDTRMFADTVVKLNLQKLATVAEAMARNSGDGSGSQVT
T1 sequence (P49597 1-434): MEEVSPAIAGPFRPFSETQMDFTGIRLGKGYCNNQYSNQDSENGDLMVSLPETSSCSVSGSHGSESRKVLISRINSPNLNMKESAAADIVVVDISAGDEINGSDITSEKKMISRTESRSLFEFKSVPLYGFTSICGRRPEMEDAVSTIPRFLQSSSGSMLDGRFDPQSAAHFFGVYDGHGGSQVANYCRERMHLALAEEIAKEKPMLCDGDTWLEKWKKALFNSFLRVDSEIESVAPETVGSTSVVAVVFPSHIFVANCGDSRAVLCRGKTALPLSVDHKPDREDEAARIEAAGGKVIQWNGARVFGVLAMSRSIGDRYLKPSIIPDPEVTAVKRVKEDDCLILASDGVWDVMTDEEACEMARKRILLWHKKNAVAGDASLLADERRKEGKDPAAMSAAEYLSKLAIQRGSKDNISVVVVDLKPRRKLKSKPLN
Method in brief: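 Arabidopsis ABI1 (0.15 μg/well) with RCAR11/PYR1 (0.30 μg/well) in Tris-HCl pH 8, NaCl, MnCl2, DTT, Tween20; MUP substrate, 20 min at 35 °C, fluorescence ex 340/em 460 nm. Compounds tested at 5 mM in DMSO/water, optionally pre-treated with porcine liver esterase; inhibition banded ≥90/70/50/30%.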

Brassica napus [4] = test: Drought stress greenhouse test Part C, visual scoring vs stressed control plants; assay type: in vivo; design: key: 0: no effect; 10: slight positive effect; 20: clear positive effect; 30: strong positive effect; conditions: spray application 250 g/ha, efficacy range of 3-4 pots
Method: Seeds of monocotyledonous and dicotyledonous crop plants were sown in sandy loam in plastic or wood-fiber pots, covered with soil or sand and cultivated in a greenhouse under good growth conditions. The trial plants were treated at the early leaf stage (BBCH10-BBCH13). To assure uniform water supply before commencement of stress, the potted plants were supplied with water by dam irrigation prior to substance application. The inventive compounds were first formulated as wettable powders (WP) or dissolved in a solvent mixture. The further dilution was effected with water supplemented with 0.2% wetting agent (e.g. agrotin). The finished spray liquor was sprayed onto the green parts of the plant at an equivalent water application rate of 600 l/ha. Substance application was followed immediately by stress treatment of the plants. For this purpose, the wood-fiber pots were transferred in plastic inserts in order to prevent them from subsequently drying out too quickly. Drought stress was induced by gradual drying out under the following conditions: “Day”: 14 hours with illumination at 26-30° C. […] Once this juncture had been reached, the appearance of the plants treated with test substances was recorded in comparison to the stressed control plants by the following categories: [table] For each substance and dosage, 3-4 pots were treated and evaluated. […]

Brassica napus [5] = test: Drought stress greenhouse test Part B, visual scoring vs stressed control plants; assay type: in vivo; design: key: 0: no effect; 10: slight positive effect; 20: clear positive effect; 30: strong positive effect; conditions: efficacy range of 2-3 pots
Method: as §1, §2, §3
(§11) “Day”: 14 hours with illumination at 26-30° C. “Night”: 10 hours without illumination at 18-20° C.
The duration of the respective stress phases was guided mainly by the condition of the stressed control plants. […]
as §7
For each substance and dosage, 2-3 pots were treated and evaluated. […]

Triticum aestivum [6] = test: as above; assay type: in vivo; conditions: spray application 25 g/ha, efficacy range of 2-3 pots
Method: as §1, §2, §3, §11, §5
as §6, with “and is” for “and was”
as §7
For each substance and dosage, 2-3 pots were treated and evaluated.
as §10

Structure (SMILES): O=C1CCc2cc(NS(=O)(=O)Cc3ccc(F)cc3)ccc2N1CC1CC1 [A19-158]
Effect (BRSNS) (Brassica napus [1]): 20 | Effect (TRZAS) (Triticum aestivum [2]; spray application 25 g/ha): 20-30 | Effect (TRZAS) (Triticum aestivum [2]; spray application 250 g/ha): 20-30 | ABI1 inhibition [3]: ++++ (inhibition≧90%)

Structure (SMILES): N#CCN1C(=O)CCc2cc(NS(=O)(=O)Cc3ccc(Br)cc3)ccc21 [A16-172]
Effect (BRSNS) (Brassica napus [5]; spray application 25 g/ha): 20 | Effect (TRZAS) (Triticum aestivum [6]): 10-20

Continued, in another order:

ABI1 inhibition [3]: ++++ (inhibition≧90%)
Structure (SMILES): O=C1CCc2cc(NS(=O)(=O)Cc3ccc(C(F)(F)F)cc3)ccc2N1CC1CC1 [A19-178]
Effect (BRSNS) (Brassica napus [1]): 20

ABI1 inhibition [3]: ++++ (inhibition≧90%)
Structure (SMILES): COCN1C(=O)CCc2cc(NS(=O)(=O)Cc3ccc(C(F)(F)F)cc3)ccc21 [A49-178]
Effect (BRSNS) (Brassica napus [4]): 20

ABI1 inhibition [3]: +++ (90%>inhibition≧70%)
Structure (SMILES): O=C1CCc2cc(NS(=O)(=O)Cc3cc(F)cc(F)c3)ccc2N1CC1CC1 [A19-164]
Effect (BRSNS) (Brassica napus [5]; spray application 2.5 g/ha): 20
